Several values for one entry are separate records, joined by “and”; a condition that tells them apart may be missing. Equal entries are not always repeated.
Legend:
Type in all cases: cell-based
AaegOR13 = molecular target: T1, AaegOR13 (Aedes aegypti, UniProt Q16Z13); assay: Two-electrode voltage clamp of Xenopus laevis oocytes expressing AaegOR13/Orco (blends, unitary compounds, concentration-response); conditions: unitary compounds; for Normalized response, unitary compounds, Average: average of oocytes 1-7; for Raw data (Responses in nA), unitary compounds of Indoles 1, Alcohols 1, Alcohols 3 / Normalized response, unitary compounds of Indoles 1, Alcohols 1, Alcohols 3: individual oocytes 1-7; for Normalized response, unitary compounds of Indoles 1, Alcohols 1, Alcohols 3: normalized per oocyte
T1 sequence (Q16Z13 1-389): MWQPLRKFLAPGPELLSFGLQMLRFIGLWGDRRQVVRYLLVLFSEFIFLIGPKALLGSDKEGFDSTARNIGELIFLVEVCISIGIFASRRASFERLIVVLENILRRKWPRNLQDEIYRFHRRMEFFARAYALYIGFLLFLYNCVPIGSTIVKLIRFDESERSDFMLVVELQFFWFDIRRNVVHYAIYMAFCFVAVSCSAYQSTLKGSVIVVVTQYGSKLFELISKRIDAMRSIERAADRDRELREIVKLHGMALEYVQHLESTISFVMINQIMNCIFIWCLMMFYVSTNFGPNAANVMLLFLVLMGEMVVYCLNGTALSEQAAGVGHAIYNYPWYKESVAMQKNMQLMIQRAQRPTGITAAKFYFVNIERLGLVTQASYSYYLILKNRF
T1 sequence (Q178U6 1-478 partner): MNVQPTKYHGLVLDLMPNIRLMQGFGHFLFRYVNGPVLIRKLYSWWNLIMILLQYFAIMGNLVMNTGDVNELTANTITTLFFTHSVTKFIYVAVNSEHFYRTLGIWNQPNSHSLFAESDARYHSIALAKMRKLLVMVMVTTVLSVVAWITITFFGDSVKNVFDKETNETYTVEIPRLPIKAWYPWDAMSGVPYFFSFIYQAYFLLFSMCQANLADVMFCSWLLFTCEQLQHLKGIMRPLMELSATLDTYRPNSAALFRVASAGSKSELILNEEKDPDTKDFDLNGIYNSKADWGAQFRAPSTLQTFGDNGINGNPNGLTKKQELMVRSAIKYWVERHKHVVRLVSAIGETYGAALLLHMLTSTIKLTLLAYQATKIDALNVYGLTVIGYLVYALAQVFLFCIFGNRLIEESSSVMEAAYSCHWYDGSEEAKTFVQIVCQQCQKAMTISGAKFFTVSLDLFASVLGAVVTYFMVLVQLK
Text: (§1) The coding regions of ten AaegOR genes of interest (S3 File) and AaegOrco were synthesized by Twist Bioscience (San Francisco, CA, USA) and cloned into the pENTR plasmid. The Gateway LR directional cloning system (Invitrogen Corp., Carlsbad, CA, USA) was utilized to subclone AaegOR coding regions into the pSP64t-RFA oocyte expression plasmid. Plasmids were purified using the GeneJet Plasmid Miniprep Kit (ThermoFisher Scientific, Waltham, MA, USA). Purified plasmids were sequenced in both directions to confirm coding regions.
(§2) Chemical compounds (S6 File) used in the deorphanization of AaegORs were purchased from Acros Organics (Morris, NJ, USA), Alfa Aesar (Ward Hill, MA, USA), and ThermoFisher Scientific (Waltham, MA, USA) at the highest purity available. Compounds were stored as 1M stocks in 100% DMSO. Serial dilutions of each compound were prepared in 10% DMSO and blended by chemical class.
(§3) pSP64t-RFA: AaegOR clones were linearized using Xbal, and cRNAs were synthesized using the mMESSAGE mMACHINE ® SP6 kit (Life Technologies, Carlsbad, CA, USA). Xenopus laevis stage V-VII oocytes purchased from Xenopus1 (Dexter, MI, USA) were stored at 18°C in Incubation medium (ND96 96 with 5% dialyzed horse serum, 50μg/mL gentamycin, 100μg/mL streptomycin, 100μg/mL penicillin, and 550μg/mL sodium pyruvate). 30nL of cRNA was injected into multiple oocytes using a microinjection syringe pump (World Precision Instruments, Sarasota, FL, USA) maintained at 18°C for 48–72 hrs. Odorant blends were perfused across individual oocytes for 10–15 seconds, held at a resting membrane potential of -80 mV using an OC-725C oocyte clamp (Warner Instruments, LLC, Hamden, CT, USA). Induced currents were measured indirectly using the two-electrode voltage clamp technique (TEVC). Following each stimulus, currents were allowed to return to baseline before further stimulation. Data was captured using the Digidata 1550 B digitizer and PClamp10 software (Molecular Devices, San Jose, CA, USA). Concentration-response curves were generated by perfusing unitary odorants over oocytes at increasing concentrations from [10^-3M] to [10^-9M]. Data were analyzed using GraphPad Prism 8 (GraphPad Software Inc., La Jolla, CA, USA). At least two biological replicates were conducted at each concentration and for each compound. Data for at least seven oocytes responding to each compound was analyzed (S7 File).

AaegOR8 = molecular target: T2, AaegOR8 (Aedes aegypti, UniProt Q16MN0); assay: Two-electrode voltage clamp of Xenopus laevis oocytes expressing AaegOR8/Orco (blends, unitary compounds, concentration-response); conditions: Alcohols 2 unitary compounds
T2 sequence (Q16MN0 32-422): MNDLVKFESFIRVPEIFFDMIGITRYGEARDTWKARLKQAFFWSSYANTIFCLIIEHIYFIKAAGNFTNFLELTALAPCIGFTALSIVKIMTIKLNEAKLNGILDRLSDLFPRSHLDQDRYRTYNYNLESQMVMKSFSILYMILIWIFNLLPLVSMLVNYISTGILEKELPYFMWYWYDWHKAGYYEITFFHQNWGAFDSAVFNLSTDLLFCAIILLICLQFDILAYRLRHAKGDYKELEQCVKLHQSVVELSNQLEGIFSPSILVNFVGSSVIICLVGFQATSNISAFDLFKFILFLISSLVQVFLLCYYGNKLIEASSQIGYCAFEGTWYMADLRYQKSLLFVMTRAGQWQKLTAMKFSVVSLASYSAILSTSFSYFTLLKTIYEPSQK
T2 sequence (Q178U6 1-478 partner): T1 sequence (Q178U6 1-478 partner)
Text: as §1, §2, §3

AaegOR6 = molecular target: T3, AaegOR6 (Aedes aegypti, UniProt A0A1S4G757); assay: Two-electrode voltage clamp of Xenopus laevis oocytes expressing AaegOR6/Orco (blends, unitary compounds, concentration-response); conditions: Indoles 2 unitary compounds
T3 sequence (A0A1S4G757 1-398): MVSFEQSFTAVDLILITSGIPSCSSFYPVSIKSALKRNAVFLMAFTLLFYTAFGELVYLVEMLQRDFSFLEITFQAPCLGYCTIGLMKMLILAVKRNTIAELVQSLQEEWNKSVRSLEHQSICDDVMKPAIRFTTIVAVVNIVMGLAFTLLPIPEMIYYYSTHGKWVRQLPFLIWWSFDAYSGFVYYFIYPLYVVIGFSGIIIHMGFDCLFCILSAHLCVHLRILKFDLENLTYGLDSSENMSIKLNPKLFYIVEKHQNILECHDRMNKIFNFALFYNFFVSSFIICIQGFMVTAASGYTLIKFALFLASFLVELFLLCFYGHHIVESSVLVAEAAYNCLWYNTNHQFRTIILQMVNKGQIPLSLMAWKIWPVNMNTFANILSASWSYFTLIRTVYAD
T3 sequence (Q178U6 1-478 partner): T1 sequence (Q178U6 1-478 partner)
Text: as §1, §2, §3

AaegOR71 = molecular target: T4, AaegOR71 (Aedes aegypti, UniProt A0A3S7SHD4); assay: Two-electrode voltage clamp of Xenopus laevis oocytes expressing AaegOR71/Orco (blends, unitary compounds, concentration-response); conditions: Indoles 2 unitary compounds
T4 sequence (A0A3S7SHD4 1-415): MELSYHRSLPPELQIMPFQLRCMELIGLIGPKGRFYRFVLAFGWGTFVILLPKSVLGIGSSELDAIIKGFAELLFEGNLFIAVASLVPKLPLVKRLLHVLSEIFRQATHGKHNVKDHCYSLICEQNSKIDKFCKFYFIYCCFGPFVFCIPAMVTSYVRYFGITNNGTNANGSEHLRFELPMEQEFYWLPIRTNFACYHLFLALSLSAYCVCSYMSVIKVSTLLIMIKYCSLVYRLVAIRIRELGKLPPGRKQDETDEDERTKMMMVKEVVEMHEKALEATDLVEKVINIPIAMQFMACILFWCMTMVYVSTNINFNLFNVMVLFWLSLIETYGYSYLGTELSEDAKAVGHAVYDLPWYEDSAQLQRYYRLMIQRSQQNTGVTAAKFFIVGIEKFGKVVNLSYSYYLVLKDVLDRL
T4 sequence (Q178U6 1-478 partner): T1 sequence (Q178U6 1-478 partner)
Text: as §1, §2, §3

C=CC(C)(O)CCC=C(C)C (single isomer, unassigned; (+)) [(+) Linalool]
Normalized response, unitary compounds, Average (AaegOR13): 0.0
Raw data (Responses in nA), unitary compounds of Indoles 1, Alcohols 1, Alcohols 3 (AaegOR13): 0.0 nA
Normalized response, unitary compounds of Indoles 1, Alcohols 1, Alcohols 3 (AaegOR13): 0.0

C=CC(C)(O)CCC=C(C)C (single isomer, unassigned; (-)) [(-) Linalool]
Normalized response, unitary compounds, Average (AaegOR13): 0.26
Raw data (Responses in nA), unitary compounds of Indoles 1, Alcohols 1, Alcohols 3 (AaegOR13): 0.0 nA (6×) and 5.0 nA
Normalized response, unitary compounds of Indoles 1, Alcohols 1, Alcohols 3 (AaegOR13): 0.0 (6×) and 1.8

CC(C)(C)c1ccc(O)cc1 [4-tert-butylphenol]
Raw data (Responses in nA), unitary compounds of Indoles 1, Alcohols 1, Alcohols 3 (AaegOR13): 10.0 nA and 305.0 nA and 70.0 nA and 85.0 nA and 150.0 nA and 90.0 nA and 55.0 nA

CC1CCCC2(C)CCCCC12O (stereo not shown) [Geosmin]
Raw data (Responses in nA) Oocyte 1 (AaegOR8; oocyte 1): 0.0 nA
Raw data (Responses in nA) Oocyte 2 (AaegOR8; oocyte 2): 0.0 nA
Raw data (Responses in nA) Oocyte 3 (AaegOR8; oocyte 3): 0.0 nA
Raw data (Responses in nA) Oocyte 4 (AaegOR8; oocyte 4): 0.0 nA
Raw data (Responses in nA) Oocyte 5 (AaegOR8; oocyte 5): 0.0 nA
Raw data (Responses in nA) Oocyte 6 (AaegOR8; oocyte 6): 0.0 nA
Raw data (Responses in nA) Oocyte 7 (AaegOR8; oocyte 7): 0.0 nA
Raw data (Responses in nA) Oocyte 8 (AaegOR8; oocyte 8): 0.0 nA

O=C1Nc2ccccc2C1=O [Isatin]
Raw data (Responses in nA) Oocyte 1 (AaegOR6; oocyte 1): 0.0 nA
Raw data (Responses in nA) Oocyte 2 (AaegOR6; oocyte 2): 0.0 nA
Raw data (Responses in nA) Oocyte 3 (AaegOR6; oocyte 3): 10.0 nA
Raw data (Responses in nA) Oocyte 4 (AaegOR6; oocyte 4): 0.0 nA
Raw data (Responses in nA) Oocyte 5 (AaegOR6; oocyte 5): 0.0 nA
Raw data (Responses in nA) Oocyte 6 (AaegOR6; oocyte 6): 0.0 nA
Raw data (Responses in nA) Oocyte 7 (AaegOR6; oocyte 7): 0.0 nA
Raw data (Responses in nA) Oocyte 8 (AaegOR6; oocyte 8): 0.0 nA
Raw Data (Response in nA) Oocyte 1 (AaegOR71; oocyte 1): 150 nA
Raw Data (Response in nA) Oocyte 2 (AaegOR71; oocyte 2): 0 nA
Raw Data (Response in nA) Oocyte 3 (AaegOR71; oocyte 3): 0 nA
Raw Data (Response in nA) Oocyte 4 (AaegOR71; oocyte 4): 0 nA
Raw Data (Response in nA) Oocyte 5 (AaegOR71; oocyte 5): 0 nA
Raw Data (Response in nA) Oocyte 6 (AaegOR71; oocyte 6): 0 nA
Raw Data (Response in nA) Oocyte 7 (AaegOR71; oocyte 7): 10 nA
Raw Data (Response in nA) Oocyte 8 (AaegOR71; oocyte 8): 0 nA
